{
  "source": "patent US20240123079A1",
  "about": "(Seagen Inc., priority 2021, published 2024)",
  "key": {"[1]": {"tested_on": "THP1-Dual™ reporter cells", "assay": "THP1-Dual cell reporter assay (IRF-Lucia luciferase reporter)", "type": "cell-based, human", "conditions": "for EC50 (ng/mL): ADCs: drug linker conjugated to a targeted mAb, 48 h; for EC50: Homo sapiens, THP1-Dual, free compounds, 24 h, Lucia reporter signal, read-out: EC50", "procedure,_shortened": "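THP1-Dual monocytic cells (~100,000/well) were exposed to compound for 24 h (ADCs 48 h). Secreted IRF-driven Lucia luciferase in the supernatant was quantified by QUANTI-Luc luminescence.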"}, "[2]": {"assay": "In vivo cytokine assay, plasma of Renca tumor-bearing mice", "design": "species or system mouse", "protocol": "Cytokines were measured in mouse plasma harvested at 3, 6, 24, or 48 hours after treatment with compounds or ADCs using a Milliplex MAP mouse cytokine/chemokine magnetic bead panel assay kit (MCYTOMAG-70k custom 11-plex kit: MCP1, MIP1α, MIP1β, TNFα, IFNγ, IL-10, IL-12p70, IL-6, IL-1β, IP10, RANTES) and analyzed using a Luminex™ MAGPIX™ Instrument System. Values that were outside of the standard curve range (<3.2 or […]) were excluded from calculation of the mean values."}, "[3]": {"tested_on": "Renca cancer cells", "assay": "Renca tumor model, in vivo anti-tumor activity and weight change", "conditions": "Renca tumor-bearing mice", "protocol": "In some experiments, Renca tumor cells were engineered to express the indicated murine or human target antigen.\nWhen tumor volumes reached 100 mm^3, the mice were dosed with either compounds or ADCs by intraperitoneal or intravenous injection at the indicated dosing schedule and tumor volumes were monitored twice weekly. Compounds were formulated in 40% PEG400 in saline.\nA syngeneic system was used to assess the ability of the STING agonist ADCs to induce immune responses in vivo and drive an anti-tumor immune response. The Renca system is a subcutaneous, mouse renal adenocarcinoma model. Female Balb/c mice were implanted with 2×10^6 Renca cells subcutaneously in the flank on day 0. When mean tumor size of 100 mm^3 (measured by using the formula Volume (mm^3)=0.5*Length*Width^2 where length is the longer dimension) was reached mice were randomized into treatment groups of ≥5 mice per group. Animals were then treated intraperitoneally (ADCs or compounds) or intravenously (compounds) with the indicated treatment every 7 days, for 3 doses total (or as indicated). Tumor length and width and the weight of the animals was measured throughout the study and tumor volume was calculated using the formula above. Animals were followed until the tumor volume reached ˜1000 mm^3; animals were then euthanized."}, "[4]": {"conditions": "Renca tumor-bearing mice, 3 h, 1.86 mg/kg"}, "[5]": {"conditions": "Renca tumor-bearing mice, 6 h, 1.86 mg/kg"}, "[6]": {"conditions": "Renca tumor-bearing mice, 24 h, 1.86 mg/kg"}},
  "data": [
    {"compound": "CCn1nc(C)cc1C(=O)Nc1nc2cc(S(N)(=O)=O)ccc2n1C/C=C/Cn1c(NC(=O)c2cc(C)nn2CC)nc2cc(C(N)=O)cc(OCCC3CN(C(=O)CCN4C(=O)C=CC4=O)C3)c21", "note": "[Compound 144, (E)-7-(2-(1-(3-(2,5-dioxo-2,5-dihydro-1H-pyrrol-1-yl)propanoyl)azetidin-3-yl)ethoxy)-2-(1-ethyl-3-methyl-1H-pyrazole-5-carboxamido)-1-(4-(2-(1-ethyl-3-methyl-1H-pyrazole-5-carboxamido)-5-sulfamoyl-1H-benzo[d]imidazol-1-yl)but-2-en-1-yl)-1H-benzo[d]imidazole-5-carboxamide]", "values": [
      {"measurement": "EC50 (ng/mL)", "setting": "[1]", "result": ">10,000 ng/mL"}
    ]},
    {"compound": "CCn1nc(C)cc1C(=O)Nc1nc2cc(S(N)(=O)=O)ccc2n1C/C=C/Cn1c(NC(=O)c2cc(C)nn2C)nc2cc(C(N)=O)cc(OCCC3CN(C(=O)CCN4C(=O)C=CC4=O)C3)c21", "note": "[Compound 145, (E)-2-(1,3-dimethyl-1H-pyrazole-5-carboxamido)-7-(2-(1-(3-(2,5-dioxo-2,5-dihydro-1H-pyrrol-1-yl)propanoyl)azetidin-3-yl)ethoxy)-1-(4-(2-(1-ethyl-3-methyl-1H-pyrazole-5-carboxamido)-5-sulfamoyl-1H-benzo[d]imidazol-1-yl)but-2-en-1-yl)-1H-benzo[d]imidazole-5-carboxamide]", "values": [
      {"measurement": "EC50 (ng/mL)", "setting": "[1]", "result": ">10,000 ng/mL"}
    ]},
    {"compound": "CCn1nc(C)cc1C(=O)Nc1nc2cc(S(N)(=O)=O)ccc2n1C/C=C/Cn1c(NC(=O)c2cc(C)nn2CC)nc2cc(C(N)=O)cc(OCCCOC3CN(C(=O)CCN4C(=O)C=CC4=O)C3)c21", "note": "[Compound 146, (E)-7-(3-((1-(3-(2,5-dioxo-2,5-dihydro-1H-pyrrol-1-yl)propanoyl)azetidin-3-yl)oxy)propoxy)-2-(1-ethyl-3-methyl-1H-pyrazole-5-carboxamido)-1-(4-(2-(1-ethyl-3-methyl-1H-pyrazole-5-carboxamido)-5-sulfamoyl-1H-benzo[d]imidazol-1-yl)but-2-en-1-yl)-1H-benzo[d]imidazole-5-carboxamide]", "values": [
      {"measurement": "EC50 (ng/mL)", "setting": "[1]", "result": ">10,000 ng/mL"}
    ]},
    {"compound": "CCn1nc(C)cc1C(=O)Nc1nc2cc(S(N)(=O)=O)ccc2n1C/C=C/Cn1c(NC(=O)c2cc(C)nn2C)nc2cc(C(N)=O)cc(OCCCOC3CN(C(=O)CCN4C(=O)C=CC4=O)C3)c21", "note": "[Compound 147, (E)-2-(1,3-dimethyl-1H-pyrazole-5-carboxamido)-7-(3-((1-(3-(2,5-dioxo-2,5-dihydro-1H-pyrrol-1-yl)propanoyl)azetidin-3-yl)oxy)propoxy)-1-(4-(2-(1-ethyl-3-methyl-1H-pyrazole-5-carboxamido)-5-sulfamoyl-1H-benzo[d]imidazol-1-yl)but-2-en-1-yl)-1H-benzo[d]imidazole-5-carboxamide]", "values": [
      {"measurement": "EC50 (ng/mL)", "setting": "[1]", "result": ">10,000 ng/mL"}
    ]},
    {"compound": "CCn1nc(C)cc1C(=O)Nc1nc2cc(S(N)(=O)=O)ccc2n1C/C=C/Cn1c(NC(=O)c2cc(C)nn2C)nc2cc(C(N)=O)cc(OCCCN(C)C(=O)CCN3C(=O)C=CC3=O)c21", "note": "[Compound 148, (E)-2-(1,3-dimethyl-1H-pyrazole-5-carboxamido)-7-(3-(3-(2,5-dioxo-2,5-dihydro-1H-pyrrol-1-yl)-N-methylpropanamido)propoxy)-1-(4-(2-(1-ethyl-3-methyl-1H-pyrazole-5-carboxamido)-5-sulfamoyl-1H-benzo[d]imidazol-1-yl)but-2-en-1-yl)-1H-benzo[d]imidazole-5-carboxamide]", "values": [
      {"measurement": "EC50 (ng/mL)", "setting": "[1]", "result": ">10,000 ng/mL"}
    ]},
    {"compound": "CCc1nc(C)oc1C(=O)Nc1nc2cc(C(N)=O)cc(OCCC3CN(C(=O)CCN4C(=O)CC(SC[C@H](N)C(=O)O)C4=O)C3)c2n1C/C=C/Cn1c(NC(=O)c2cc(C)nn2CC)nc2cc(C(N)=O)cc(OC)c21", "note": "(stereo partly drawn) [Compound 154, S-(1-(3-(3-(2-((5-carbamoyl-1-((E)-4-(5-carbamoyl-2-(1-ethyl-3-methyl-1H-pyrazole-5-carboxamido)-7-methoxy-1H-benzo[d]imidazol-1-yl)but-2-en-1-yl)-2-(4-ethyl-2-methyloxazole-5-carboxamido)-1H-benzo[d]imidazol-7-yl)oxy)ethyl)azetidin-1-yl)-3-oxopropyl)-2,5-dioxopyrrolidin-3-yl)-L-cysteine]", "values": [
      {"measurement": "EC50", "setting": "[1]", "result": "> 10000", "unit": "nM"}
    ]},
    {"compound": "CCn1nc(C)cc1C(=O)Nc1nc2cc(C(N)=O)cc(OC)c2n1C/C=C/Cn1c(NC(=O)c2cc(C)nn2C)nc2cc(C(N)=O)cc(OCCCOC3CN(C(=O)CCN4C(=O)CC(SC[C@H](N)C(=O)O)C4=O)C3)c21", "note": "(stereo partly drawn) [Compound 155, S-(1-(3-(3-(3-((5-carbamoyl-1-((E)-4-(5-carbamoyl-2-(1-ethyl-3-methyl-1H-pyrazole-5-carboxamido)-7-methoxy-1H-benzo[d]imidazol-1-yl)but-2-en-1-yl)-2-(1,3-dimethyl-1H-pyrazole-5-carboxamido)-1H-benzo[d]imidazol-7-yl)oxy)propoxy)azetidin-1-yl)-3-oxopropyl)-2,5-dioxopyrrolidin-3-yl)-L-cysteine]", "values": [
      {"measurement": "EC50", "setting": "[1]", "result": 94, "unit": "nM"}
    ]},
    {"compound": "CCc1nc(C)oc1C(=O)Nc1nc2cc(C(N)=O)cc(OCCCOC3CN(C(=O)CCN4C(=O)CC(SC[C@H](N)C(=O)O)C4=O)C3)c2n1C/C=C/Cn1c(NC(=O)c2cc(C)nn2CC)nc2cc(C(N)=O)cc(OC)c21", "note": "(stereo partly drawn) [Compound 156, S-(1-(3-(3-(3-((5-carbamoyl-1-((E)-4-(5-carbamoyl-2-(1-ethyl-3-methyl-1H-pyrazole-5-carboxamido)-7-methoxy-1H-benzo[d]imidazol-1-yl)but-2-en-1-yl)-2-(4-ethyl-2-methyloxazole-5-carboxamido)-1H-benzo[d]imidazol-7-yl)oxy)propoxy)azetidin-1-yl)-3-oxopropyl)-2,5-dioxopyrrolidin-3-yl)-L-cysteine]", "values": [
      {"measurement": "EC50", "setting": "[1]", "result": 1560, "unit": "nM"}
    ]},
    {"compound": "CCn1nc(C)cc1C(=O)Nc1nc2cc(C(N)=O)cc(OC)c2n1C/C=C/Cn1c(NC(=O)c2cc(C)nn2CC)nc2cc(C(N)=O)cc(OCCCN3CCOCC3)c21.O=C(O)C(F)(F)F.O=C(O)C(F)(F)F.O=C(O)C(F)(F)F", "note": "[Compound A, (E)-1-(4-(5-carbamoyl-2-(1-ethyl-3-methyl-1H-pyrazole-5-carboxamido)-7-(3-morpholinopropoxy)-1H-benzo[d]imidazol-1-yl)but-2-en-1-yl)-2-(1-ethyl-3-methyl-1H-pyrazole-5-carboxamido)-7-methoxy-1H-benzo[d]imidazole-5-carboxamide tris(2,2,2-trifluoroacetate), reference compound]", "values": [
      {"measurement": "EC50", "setting": "[1]", "result": 3, "unit": "nM"},
      {"measurement": "potency relative to other free compound", "setting": "[1]; free drug", "result": "significantly more potent"},
      {"measurement": "IL1β in plasma", "setting": "[2]; [4]", "result": 1.5, "unit": "pg/mL"},
      {"measurement": "IL12p70 in plasma", "setting": "[2]; [4]", "result": 0.2, "unit": "pg/mL"},
      {"measurement": "IL-6 in plasma", "setting": "[2]; [4]", "result": 3550, "unit": "pg/mL"},
      {"measurement": "IL-10 in plasma", "setting": "[2]; [4]", "result": 0.5, "unit": "pg/mL"},
      {"measurement": "IP10 in plasma", "setting": "[2]; [4]", "result": 4780, "unit": "pg/mL"},
      {"measurement": "MCP-1 in plasma", "setting": "[2]; [4]", "result": 14500, "unit": "pg/mL"},
      {"measurement": "IFNγ in plasma", "setting": "[2]; [5]", "result": 71.8, "unit": "pg/mL"},
      {"measurement": "IL1β in plasma", "setting": "[2]; [5]", "result": 0.6, "unit": "pg/mL"},
      {"measurement": "IL12p70 in plasma", "setting": "[2]; [5]", "result": 0.2, "unit": "pg/mL"},
      {"measurement": "IL-6 in plasma", "setting": "[2]; [5]", "result": 732, "unit": "pg/mL"},
      {"measurement": "IL-10 in plasma", "setting": "[2]; [5]", "result": "< 3.2", "unit": "pg/mL"},
      {"measurement": "IP10 in plasma", "setting": "[2]; [5]", "result": 4980, "unit": "pg/mL"},
      {"measurement": "IFNγ in plasma", "setting": "[2]; [6]", "result": "< 3.2", "unit": "pg/mL"},
      {"measurement": "IL1β in plasma", "setting": "[2]; [6]", "result": 0.3, "unit": "pg/mL"},
      {"measurement": "IL12p70 in plasma", "setting": "[2]; [6]", "result": "< 3.2", "unit": "pg/mL"},
      {"measurement": "IL-6 in plasma", "setting": "[2]; [6]", "result": 16.4, "unit": "pg/mL"},
      {"measurement": "IL-10 in plasma", "setting": "[2]; [6]", "result": "< 3.2", "unit": "pg/mL"},
      {"measurement": "IP10 in plasma", "setting": "[2]; [6]", "result": 890, "unit": "pg/mL"},
      {"measurement": "systemic pro-inflammatory cytokine (IL-6 and TNF) production", "setting": "[2]; plasma of tumor-bearing mice", "result": "induced robust production of IL-6 and TNF"},
      {"measurement": "tolerability", "setting": "[3]", "result": "less well tolerated"},
      {"measurement": "average weight loss after the 2nd dose", "setting": "[3]; q7dx3", "result": 6.2, "unit": "%"}
    ]}
  ]
}
